According to patent US11166959B2, “Isofuranone compounds useful as HPK1 inhibitors” (BRISTOL-MYERS SQUIBB COMPANY, priority 2017, dated 2021):

Experiments:
[1] = molecular target: T1, IRAK4 (Homo sapiens, UniProt Q9NWZ3); assay: IRAK4 Inhibition Assay (kinase reaction, Caliper capillary electrophoresis); format: biochemical; conditions: 500 μM ATP, 11 concentrations
T1 construct: 1 nM IRAK4 (160-460); purchased SignalChem M24016
T1 sequence (Q9NWZ3 160-460): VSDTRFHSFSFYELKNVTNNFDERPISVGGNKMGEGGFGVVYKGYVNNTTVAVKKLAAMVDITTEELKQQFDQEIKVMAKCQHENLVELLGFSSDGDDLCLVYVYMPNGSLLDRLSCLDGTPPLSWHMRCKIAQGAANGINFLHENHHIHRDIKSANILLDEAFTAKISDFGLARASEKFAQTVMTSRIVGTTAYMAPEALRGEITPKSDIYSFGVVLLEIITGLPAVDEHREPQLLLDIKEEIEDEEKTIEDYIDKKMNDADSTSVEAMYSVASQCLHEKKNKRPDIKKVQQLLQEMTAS
Method: (§1) The reactions were incubated out for three hours and quenched with 1 mM EDTA solution. The reaction incubation time and enzyme concentration were optimized to obtain a maximum peptide substrate conversion of 20-30%. The reaction mixtures were analyzed by capillary electrophoresis on a Caliper LabChip EZ Reader to resolve phosphorylated and unphosphorylated peptide species and determine peptide substrate conversion. […] The compounds were dissolved in DMSO and evaluated at 11 concentrations to determine IC50 values.

[2] = molecular target: T2, HPK1 (Homo sapiens, UniProt Q92918); assay: HPK1 Inhibition Assay (kinase reaction, Caliper capillary electrophoresis); format: biochemical; conditions: for IC50: 0.625 nM HPK1, 22 μM ATP, 11 concentrations, read-out: HPK1 IC50; for IRAK4/HPK1 Ratio: ratio of the IRAK4 IC50 value to the HPK1 IC50 value
T2 construct: purchased SignalChem M23-11G
T2 sequence (Q92918 1-346 limits assumed): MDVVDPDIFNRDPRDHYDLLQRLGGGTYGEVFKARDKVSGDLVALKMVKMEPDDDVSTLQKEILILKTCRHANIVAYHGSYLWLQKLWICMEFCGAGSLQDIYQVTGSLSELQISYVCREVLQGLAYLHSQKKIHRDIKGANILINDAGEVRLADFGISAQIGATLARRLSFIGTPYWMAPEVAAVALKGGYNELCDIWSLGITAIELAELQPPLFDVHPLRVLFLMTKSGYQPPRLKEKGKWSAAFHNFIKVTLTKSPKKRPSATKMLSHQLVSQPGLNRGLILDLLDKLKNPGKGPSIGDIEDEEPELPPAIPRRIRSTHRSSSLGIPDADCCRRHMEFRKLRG
Method: as §1, with “to determine the IC50 values.” for “to determine IC50 values.”

IC50 [1] [nM]	IC50 [2] [nM]	IRAK4/HPK1 Ratio [2]	Structure (SMILES)
250 to 1000	< 50	C (C=>50)	CN(C)C12CC(c3noc(-c4cnc(Nc5ccc6c(c5)C(C)(C)OC6=O)nc4N[C@H](CO)c4ccccc4)n3)(C1)C2 [Example 48, 5-[(5-{3-[3-(dimethylamino)bicyclo[1.1.1]pentan-1-yl]-1,2,4-oxadiazol-5-yl}-4-{[(1S)-2-hydroxy-1-phenylethyl]amino}pyrimidin-2-yl)amino]-3,3-dimethyl-1,3-dihydro-2-benzofuran-1-one]
250 to 1000	< 50	C (C=>50)	CC(=O)NC12CC(c3noc(-c4cnc(Nc5ccc6c(c5)C(C)(C)OC6=O)nc4N[C@H](CO)c4ccccc4)n3)(C1)C2 [Example 49, N-[3-(5-{2-[(3,3-dimethyl-1-oxo-1,3-dihydro-2-benzofuran-5-yl)amino]-4-{[(1S)-2-hydroxy-1-phenylethyl]amino}pyrimidin-5-yl}-1,2,4-oxadiazol-3-yl)bicyclo[1.1.1]penta-1-yl]acetamide]
250 to 1000	< 50	C (C=>50)	COC(=O)NC12CC(c3noc(-c4cnc(Nc5ccc6c(c5)C(C)(C)OC6=O)nc4N[C@H](CO)c4ccccc4)n3)(C1)C2 [Example 50, Methyl N-[3-(5-{2-[(3,3-dimethyl-1-oxo-1,3-dihydro-2-benzofuran-5-yl)amino]-4-{[(1S)-2-hydroxy-1-phenylethyl]amino}pyrimidin-5-yl}-1,2,4-oxadiazol-3-yl)bicyclo[1.1.1]pentan-1-yl]carbamate]
250 to 1000	< 50	C (C=>50)	CC1(C)OC(=O)c2ccc(Nc3ncc(C(=O)NN)c(N[C@H](CO)c4ccccc4)n3)cc21 [Example 51, 2-[(3,3-dimethyl-1-oxo-1,3-dihydro-2-benzofuran-5-yl)amino]-4-{[(1S)-2-hydroxy-1-phenylethyl]amino}pyrimidine-5-carbohydrazide]
250 to 1000	< 50	C (C=>50)	CC1(C)OC(=O)c2ccc(Nc3ncc(-c4n[nH]c(=O)o4)c(N[C@H](CO)c4ccccc4)n3)cc21 [Example 52, 5-{2-[(3,3-dimethyl-1-oxo-1,3-dihydro-2-benzofuran-5-yl)amino]-4-{[(1S)-2-hydroxy-1-phenylethyl]amino}pyrimidin-5-yl}-2,3-dihydro-1,3,4-oxadiazol-2-one]
250 to 1000	< 50	C (C=>50)	CCn1nc(-c2cnc(Nc3ccc4c(c3)C(C)(C)OC4=O)nc2N[C@H](CO)c2ccccc2)oc1=O [Example 53, 5-{2-[(3,3-dimethyl-1-oxo-1,3-dihydro-2-benzofuran-5-yl)amino]-4-{[(1S)-2-hydroxy-1-phenylethyl]amino}pyrimidin-5-yl}-3-ethyl-2,3-dihydro-1,3,4-oxadiazol-2-one]
250 to 1000	< 50	B (B=10 to 50)	CC1(C)OC(=O)c2ccc(Nc3ncc(C(=O)NNC(=O)c4cccnc4)c(N[C@H](CO)c4ccccc4)n3)cc21 [Example 56, N′-{2-[(3,3-dimethyl-1-oxo-1,3-dihydro-2-benzofuran-5-yl)amino]-4-{[(1S)-2-hydroxy-1-phenylethyl]amino}pyrimidine-5-carbonyl}pyridine-3-carbohydrazide]
250 to 1000	< 50	C (C=>50)	CC1(C)OC(=O)c2ccc(Nc3ncc(-c4nnc(-c5cccnc5)o4)c(N[C@H](CO)c4ccccc4)n3)cc21 [Example 57, 5-[(4-{[(1S)-2-hydroxy-1-phenylethyl]amino}-5-[5-(pyridin-3-yl)-1,3,4-oxadiazol-2-yl]pyrimidin-2-yl)amino]-3,3-dimethyl-1,3-dihydro-2-benzofuran-1-one]
